From patent US20220411473A1, “LYSIN-ANTIMICROBIAL PEPTIDE (AMP) POLYPEPTIDE CONSTRUCTS, LYSINS, ISOLATED POLYNUCLEOTIDES ENCODING SAME AND USES THEREOF” (priority 2019, published 2022)
Read-outs that look alike come from different tables or passages of the source.

Legend:
Staphylococcus aureus = experiment: Daptomycin MIC in […] (positive control); assay type: cell-based; conditions: S. aureus
Protocol: As a positive control, the impact of […] ® on daptomycin (DAP) activity against Staphylococcus aureus was also tested.

[1] = system: carbapenem-resistant P. aeruginosa strains; assay type: cell-based, Pseudomonas aeruginosa; conditions: for susceptibility category, antibiotic alone: Table 22, WC-452; on susceptibility category, antibiotic alone: key: (R) = resistant; (S) = sensitive; on susceptibility category, imipenem alone: key: (R) = resistant; (S) = sensitive; on susceptibility category, imipenem in combination with GN121: key: (R) = resistant; (S) = sensitive; on susceptibility category, imipenem in combination with GN123: key: (R) = resistant; (S) = sensitive; on susceptibility category, meropenem alone: key: (R) = resistant; (S) = sensitive; on susceptibility category, meropenem in combination with GN123: key: (R) = resistant; (S) = sensitive
Protocol: Such resensitization may be determined by combining the present lysins or lysin-AMP polypeptide constructs with an antibiotic in a checkerboard assay as described herein. Antibiotic-resistant bacteria, such as carbapenem-resistant P. aeruginosa, are added to the lysin or lysin-AMP polypeptide construct combination. […] See Clinical and Laboratory Standards Institute (CLSI), CLSI. […] M100 Performance Standards for Antimicrobial Susceptibility Testing; 29th Edition. Clinical and Laboratory Standards Institute, Wayne, Pa., which is herein incorporated by reference in its entirety.
Up to seven carbapenem-resistant isolates were assessed. […] See Clinical and Laboratory Standards Institute (CLSI), CLSI. […] M100 Performance Standards for Antimicrobial Susceptibility Testing; 29th Edition. Clinical and Laboratory Standards Institute, Wayne, Pa.

[2] = Table 19, isolates PA19-PA24 and WC-452
[3] = Table 18, isolates PA19-PA24 and WC-452

daptomycin
fold increase in MIC (Staphylococcus aureus; 0.09% SURVANTA): 32 fold
fold increase in MIC (Staphylococcus aureus; 0.19% SURVANTA): 32 fold
fold increase in MIC (Staphylococcus aureus; 1.56% SURVANTA): 128 fold
fold increase in MIC (Staphylococcus aureus; 3.15% SURVANTA): 128 fold

C[C@@H](O)[C@H]1C(=O)N2C(C(=O)O)=C(S[C@@H]3CN[C@H](C(=O)N(C)C)C3)[C@H](C)[C@H]12 [Meropenem, meropenem]
susceptibility category, meropenem alone [1, 2]: R
susceptibility category, meropenem in combination with GN123 [1, 2]: (S)
susceptibility category, meropenem alone ([1]; Table 21, isolates PA19-PA24 and WC-452): R
susceptibility category, antibiotic alone [1]: R
MIC Combination ([1]; isolate PA19, meropenem + GN121): 1 µg/mL
MIC Combination ([1]; isolate PA19, meropenem + GN123): 0.5 µg/mL
MIC Combination ([1]; isolate PA20, meropenem + GN121): 1 µg/mL
MIC Combination ([1]; isolate PA20, meropenem + GN123): 0.5 µg/mL
MIC Combination ([1]; isolate PA21, meropenem + GN121): 2 µg/mL
MIC Combination ([1]; isolate PA21, meropenem + GN123): 1 µg/mL
MIC Combination ([1]; isolate PA22, meropenem + GN121): 1 µg/mL
MIC Combination ([1]; isolate PA22, meropenem + GN123): 1 µg/mL
MIC Combination ([1]; isolate PA23, meropenem + GN121): 2 µg/mL
MIC Combination ([1]; isolate PA23, meropenem + GN123): 0.5 µg/mL
MIC Combination ([1]; isolate PA24, meropenem + GN121): 1 µg/mL
MIC Combination ([1]; isolate PA24, meropenem + GN123): 2 µg/mL
MIC Combination ([1]; isolate WC-452, meropenem + GN121): 1 µg/mL
MIC Combination ([1]; isolate WC-452, meropenem + GN123): 1 µg/mL

C[C@@H](O)[C@H]1C(=O)N2C(C(=O)O)=C(SCCN=CN)C[C@H]12 [Imipenem, imipenem]
susceptibility category, imipenem alone [1, 3]: R
susceptibility category, imipenem in combination with GN123 [1, 3]: (S)
susceptibility category, imipenem alone ([1]; Table 20, isolates PA19-PA24): R
susceptibility category, imipenem in combination with GN121 ([1]; Table 20, isolates PA19-PA24): (S)
susceptibility category, antibiotic alone [1]: R
MIC Combination ([1]; isolate PA19, imipenem + GN121): 1 µg/mL
MIC Combination ([1]; isolate PA19, imipenem + GN123): 0.5 µg/mL
MIC Combination ([1]; isolate PA20, imipenem + GN121): 0.5 µg/mL
MIC Combination ([1]; isolate PA20, imipenem + GN123): 1 µg/mL
MIC Combination ([1]; isolate PA21, imipenem + GN121): 1 µg/mL
MIC Combination ([1]; isolate PA21, imipenem + GN123): 0.5 µg/mL
MIC Combination ([1]; isolate PA22, imipenem + GN121): 2 µg/mL
MIC Combination ([1]; isolate PA22, imipenem + GN123): 2 µg/mL
MIC Combination ([1]; isolate PA23, imipenem + GN123): 0.25 µg/mL
MIC Combination ([1]; isolate PA24, imipenem + GN121): 1 µg/mL
MIC Combination ([1]; isolate PA24, imipenem + GN123): 2 µg/mL
MIC Combination ([1]; isolate WC-452, imipenem + GN123): 1 µg/mL
